Data from patent publication US20120251662A1, “ANTIMICROBIAL POWDERS FOR THE PREPARATION OF BAKERY PRODUCTS” (Caravan Ingredients Inc., priority 2011, published 2012).

These molecules were tested on mold (assay: Mold growth on white bread loaves (Dough Formulation A) coated with antimicrobial powders, Example 1).
Protocol: All of the ingredients except for the salt were added to a 20 qt Hobart mixer, and mixed with a spiral hook on the 1st speed setting (low) for two minutes. […] The salt was added, followed by mixing at the 2nd speed setting for an additional 3 minutes until full dough development. […] Next, a Gemini Straight Grain Moulder was used, according to the settings in Table 4 below, to sheet and mould the dough pieces. The shaped dough pieces were then evenly coated with 2 grams of various antimicrobial powders containing different antimicrobial agents, as described below, and then placed into 1-lb loaf pans. […] After baking, the loaves were removed from the oven and […]. The loaves were cooled on wire racks for 1 hour and then bagged in poly bags with twist ties. […] Each of the antimicrobial powders used above was prepared by adding the ingredients in the tables below to a 5 qt Hobart mixer and blending with a paddle attachment for 10 minutes.
For `C/C=C/C=C/C(=O)[O-].[K+]` [Potassium Sorbate], the “Mold Inhibition” value was “Effective”. Polylysine was tested, and the “Mold Inhibition” value was “Moderately Effective”. In the case of `CCC(=O)[O-].CCC(=O)[O-].[Ca+2]` [Calcium Propionate], the “Mold Inhibition” value is reported as “Slightly Effective”. In the case of `C[C@@H]1C/C=C/C=C/C=C/C=C/[C@H](O[C@@H]2O[C@H](C)[C@@H](O)[C@H](N)[C@@H]2O)C[C@@H]2O[C@](O)(C[C@@H](O)C[C@H]3O[C@@H]3/C=C/C(=O)O1)C[C@H](O)[C@H]2C(=O)O` [Natamycin, reference compound], the “Mold Inhibition” value is reported as “Effective”. For `CC(=O)O.CC(=O)[O-].[Na+]` [Sodium Diacetate], the “Mold Inhibition” value was “Moderately Effective”. In the case of `C/C=C/C=C/C(=O)O` [Sorbic Acid], the “Mold Inhibition” value is reported as “Effective”. In the case of `CCC(=O)[O-].[Na+]` [Sodium Propionate], the “Mold Inhibition” value is reported as “Moderately Effective”. In the case of `O=C(O)/C=C/C(=O)O` [Fumaric Acid], the “Mold Inhibition” value is reported as “Slightly Effective”. `O=C([O-])c1ccccc1.[Na+]` [Sodium Benzoate] was tested, and the “Mold Inhibition” value was “Moderately Effective”.
